For data set [1], the system named is retinal endothelial cells (REC). Put plainly: Matrigel assay of capillary-like tube formation. Type of data set: cell-based, bovine. Particulars: for inhibition of REC tube formation: basal and growth factor-stimulated (quercetin 50 μM, emodin, DRB 20-25 μM). The procedure:
(§1) In vitro Matrigel™ assay of capillary-like tube formation and secondary sprouting. […] Briefly, 50 μL of reconstituted basement membrane matrix from mouse EHS tumor (BD or GFR Matrigel™; Becton Dickinson Labware, Bedford, Mass.) were dispensed with frozen pipettes into each well of a previously frozen, sterile 96-well plate sitting on wet ice and allowed to solidify for 1 hr at room temperature or 37° C. Approximately 5×10^4 or 7.5×10^4 REC in a 100 μL volume were seeded into each triplicate well. Human recombinant or purified growth factors were added to a final concentration of 10 ng/mL (or as noted) in 0.5% FCS incomplete BREC medium. Capillary-like tube structures formed by REC on reconstituted basement membrane matrix were photographed at various intervals ranging from 12-72 hr; pictures were scanned, digitized and analyzed using image-processing software. For the secondary sprouting assay, cells on reconstituted basement membrane matrix (BD Matrigel™) were seeded as above but incubated in 0.5% FCS incomplete BREC medium without any growth factors for 3 days, allowing for tube formation and collapse. On day 3, human recombinant or purified growth factors were added to a final concentration of 10 ng/mL (or as noted) in low-serum incomplete BREC medium and incubated for another 5-6 days. Digital photographs were obtained with a Kodak MDS 100 camera attached to a Leitz DM IL inverted microscope. Digitized images obtained with a Kodak MDS 100 video camera were stored on compact discs and quantified with NIH Image 1.62 software. The number of living cells in the sprouting colonies were determined using the MTS cell proliferation assay.
(§2) The cells form tubes on Matrigel™ by 16 hr, and by 48 hr, without TN-C or growth factors, the tubes collapse. Secondary sprouting with Matrigel™ invasion starts by day four in culture. Cultures were monitored microscopically. Culture medium with or without growth factors or inhibitors was changed every two-three days.

For data set [2] the test system is unchanged. Description: REC proliferation assay (MTS cell number). In kind it is cell-based, bovine. Particulars: for inhibition of REC proliferation: basal and growth factor-stimulated (quercetin 50 μM, emodin, DRB 20-25 μM), H-7: preliminary, not shown. The protocol:
REC proliferation and survival assays. 96-well plates were coated with various amounts of TN-C or vehicle. […] Cell numbers were determined on days 4-7 using the MTS cell proliferation assay (Promega Corp.) according to manufacturer's instructions. Survival was measured in the same way using high glucose (30 mM) or chemical hypoxia (2 mM sodium azide) or serum-free medium to induce cell death. Cell numbers were determined on days 4-7 using MTS assay (Promega).

Data set [3] has the same test system. Put plainly: REC survival assay (low serum, MTS cell number). Type of data set: cell-based, bovine. The protocol:
REC proliferation and survival assays. 96-well plates were coated with various amounts of TN-C or vehicle. 5×10^3 cells were added to each triplicate well in low-serum REC medium with various amounts of growth factors (0.5% FCS incomplete BREC medium containing 10 ng/ml of human IGF-I, FGF-2, VEGF, PlGF and PDGF-BB [R&D Systems Inc., Minneapolis, Minn.]). Cell numbers were determined on days 4-7 using the MTS cell proliferation assay (Promega Corp.) according to manufacturer's instructions. Survival was measured in the same way using high glucose (30 mM) or chemical hypoxia (2 mM sodium azide) or serum-free medium to induce cell death. Cell numbers were determined on days 4-7 using MTS assay (Promega).

Data set [4] can be described thus: Solubility in water / vehicle. In kind it is physicochemical.
The subject of data set [5] is retinal endothelial cells (REC). Description: Migration (wound healing) assay. Type of data set: cell-based, bovine. Particulars: for inhibition of REC migration: basal and growth factor-stimulated (quercetin 50 μM, emodin, DRB 20-25 μM), H-7: preliminary, not shown; for effect on growth factor-mediated cell migration: bovine REC, four GFs (IGF-1+FGF-2+VEGF+PlGF) 10 ng/ml each, 7 days, 0.5% serum, emodin 10 μM, DRB 15 μM. The protocol: Migration assay. REC migration rates were examined in a wound healing assay, where cells migrate over time into the scrape wound in a monolayer. Briefly, cells were seeded in 24-well plates and allowed to reach confluence in growth medium. Prior to growth factor treatment, cells were serum-starved overnight in incomplete BREC medium with 0.5% FCS. All monolayers within an experiment were wounded with a single sterile wood stick of constant diameter, to ensure uniformity in the wound areas among different treatments. Wounded monolayers were then rinsed with low-serum medium to remove detached cells and treated with various combinations of human growth factors at 10 ng/mL each. On day 7, cells were rinsed 3× with PBS and fixed with methanol for 15 min, rehydrated with dH2O and stained with Meyer's hematoxylin for 5 min, followed by destaining with dH2O. All wells were photographed with a 4× or 10× objective using a Kodak MDS 100 digital camera attached to a Leitz DM IL inverted microscope. The original wound area was measured at 0 hr and used as a baseline for comparison to the treated wells at the conclusion of the experiment. The number of cells migrated into the wound was determined. Migrating cell counting was automated using the AAB (Advanced American Biotechnology, Fullerton, Calif.) software. Data were calculated and statistically analyzed (Spirin K S et al., Basement membrane and growth factor gene expression in normal and diabetic human retinas, Curr. Eye Res. 18:490-499 [1999]) relative to control cultures that received the same concentrations of bovine serum albumin instead of growth factors and/or inhibitor, compared to vehicle instead of inhibitor after wounding. Inhibitors were added 30 min before growth factors.

In data set [6] the test system is oxygen-induced retinopathy in newborn mice. Put plainly: Oxygen-induced retinopathy in newborn mice (retinal neovascularization). Type of data set: in vivo, mouse. Particulars: for retinal neovascularization diminished by: two intraperitoneal injections daily, day 11-17 after birth, emodin 20-30 μg/g, vs untreated or vehicle-treated.
The subject of data set [7] is retinal endothelial cells (REC). Description: Secondary sprouting assay on Matrigel. In kind it is cell-based, bovine. Particulars: for inhibition of REC secondary sprouting: basal and growth factor-stimulated (quercetin 50 μM, emodin, DRB 20-25 μM), H-7: preliminary, not shown. The protocol:
as §1, §2

Data set [8] deals with normal REC and DR REC gene expression. Put plainly: Gene array analysis of growth factor action on normal and DR REC. Particulars: 10 ng/mL growth factor, seven days, 0.5% serum. Type of data set: cell-based, human. The procedure:
Normal REC and DR REC gene expression patterns were compared by gene array analysis. Normal, diabetic and DR autopsy human eyes are obtained from National Disease Research Interchange (NDRI), within 24 hours after death. These eyes are used to isolate REC for culture as described hereinabove. Cultures can be used up to the fourth passage, and viable cultures can be cryogenically stored. Cultures of normal, diabetic and DR REC are established from autopsy human eyes and routinely checked for purity using von Willebrand factor immunostaining as described hereinabove. Cells are cultured in 50% F-12, 50% low-glucose DMEM with antibiotics/antimycotics (GIBCO/BRL), insulin-transferrin-selenite, ECGS (Sigma Chemical Co.), and 20% FCS. Statistical analysis of results is done with GraphPad Prism software (GraphPad Software).
In experiments, normal, diabetic, and DR REC were grown for seven days with or without 10 ng/ml VEGF, or 10 ng/mL IGF-I, or 10 ng/mL each VEGF and IGF-I, in medium with 0.5% serum. Long-term rather than short-term treatment was chosen because diabetes develops over a considerable time period. RNA isolated from REC was reverse-transcribed using Smart™ cDNA synthesis method (Clontech), to produce full-length cDNA. Two normal cases or two DR cases were pooled together. This cDNA was PCR-amplified with a short number of cycles and used as a probe for Clontech Atlas Human 1.2 1,200-gene arrays, according to the manufacturer's instructions. This technique had previously been refined and verified by Northern analysis and fully correlated gene array data with protein expression. (Spirin K S et al., Analysis of gene expression in human bullous keratopathy corneas containing limiting amounts of RNA, Invest. Ophthalmol. Vis. Sci. 40:3108-3115 [1999]). Samples were normalized to several housekeeping genes and the analysis was done with available AtlasImage 2.0 software (Clontech). Signal ratio>2 between samples was considered significant as per manufacturer's recommendation.

[9] abbreviates: emodin-treated vs vehicle control.
Setting [10] is: growth factors at 10 ng/ml each.

With `OC[C@H]1O[C@@H](n2cnc3cc(Cl)c(Cl)cc32)[C@H](O)[C@@H]1O` [DRB, 5,6-dichloro-1-β-D-ribofuranosylbenzimidazole], the “inhibition of REC tube formation” value in data set [1] is listed as “potently inhibited”. For the same compound, in data set [2], the “inhibition of REC proliferation” value was “potently inhibited”. Besides, the “effect on number of live cells (proliferation)” value in data set [2] (bovine REC, 10% serum, various concentrations, day 6, MTS) is recorded as “significantly lowers cell number”. Further, the “effect on number of live cells (survival)” value in data set [3] (bovine REC, 0.5% serum, various concentrations, day 6, MTS) was “significantly lowers cell number”. In addition, in data set [4], the solubility in water entry is “not easily dissolved in water”. Moreover, in data set [5], the “inhibition of REC migration” value is on record as “potently inhibited” and the “effect on growth factor-mediated cell migration” value is given as “significant inhibitory effect”. Moreover, the “retinal neovascularization diminished by” value in data set [6] was “about 60%”. Also, in data set [7], the “inhibition of REC secondary sprouting” value is on record as “potently inhibited”. Besides, the “concentration from which cell number in secondary sprouting is significantly decreased” value in data set [7] (bovine REC on Matrigel, 0.5% serum, day 9, MTS) is ≥ 25 µM.
With `CC1CNCCN1S(=O)(=O)c1cccc2cnccc12` (stereo not drawn) [H-7], the “effect on REC tubes on Matrigel” value in data set [1] (preliminary results, not shown) is given as “stabilized”. Moreover, the “inhibition of REC proliferation” value in data set [2] is reported as “inhibited”. Besides, the “inhibition of REC migration” value in data set [5] is “inhibited”. For the same compound, the “inhibition of REC secondary sprouting” value in data set [7] is “inhibited”.
`Cc1cc(O)c2c(c1)C(=O)c1cc(O)cc(O)c1C2=O` [emodin, 3-methyl-1,6,8-trihydroxyanthraquinone]: in data set [1], the “inhibition of REC tube formation” value is on record as “potently inhibited”. In data set [2], the “inhibition of REC proliferation” value was “potently inhibited”. Besides, in data set [4], the solubility in water result is “not easily dissolved in water”. In addition, in data set [4] (phosphate-buffered saline with 20% PEG 400 + 2% Tween-80, pH 7.2), the solubility in vehicle result is listed as “did not ensure emodin solubility”. For the same compound, in data set [5], the “inhibition of REC migration” value is listed as “potently inhibited” and the “effect on growth factor-mediated cell migration” value is “significant inhibitory effect”. For the same compound, in data set [6] (setting [9]), the “neovascular tufts in fluorescein angiograms” value is recorded as “much less pronounced” and the “retinal vascularization in fluorescein angiograms” value is given as “significantly less vascularization”. Further, in data set [6], the “retinal neovascularization diminished by” value was 70-75%. Moreover, the “inhibition of REC secondary sprouting” value in data set [7] was “potently inhibited”.
Consider `O=c1c(O)c(-c2ccc(O)c(O)c2)oc2cc(O)cc(O)c12` [quercetin], for which the “inhibition of REC tube formation” value in data set [1] is “potently inhibited”. In addition, the “inhibition of REC proliferation” value in data set [2] is given as “potently inhibited”. The “inhibition of REC migration” value in data set [5] is reported as “potently inhibited”. Moreover, the “effect on retinal neovascularization” value in data set [6] (intramuscular injections, data not shown) is reported as “substantial effect”. For the same compound, in data set [7], the “inhibition of REC secondary sprouting” value is recorded as “potently inhibited”.
Consider FGF-2: fibroblast growth factor (FGF)-2, for which the “growth factor effect on secondary sprouting (in words)” value in data set [7] (10 ng/mL growth factor) is “greatly enhanced”. Besides, the “stimulation of secondary sprouting (fold)” value in data set [7] (growth factors, on average) is on record as “four-fold”.
Consider “IGF-I: insulin-like growth factor (IGF)-I”, for which the “expression of pro-apoptotic genes” value in data set [8] is recorded as “decrease”.
Turning to VEGF, the “growth factor effect on REC survival” value in data set [3] (setting [10]) is given as “little effect”. The “growth factor effect on REC migration” value in data set [5] (setting [10]) is given as “significantly enhanced”. Moreover, in data set [8], the “expression of pro-apoptotic genes” value is reported as “did not display an increase” and the “expression of proliferation-related genes” value is recorded as “upregulated”.

The values above are taken from patent US20040121968A1, “Antiangiogenesis by inhibiting protein kinase CK2 activity” (priority 2002, published 2004).
